Results on twelve compounds are retold here after ChEMBL document CHEMBL3351581, “Synthesis of prenylated quinolinecarboxylic acid derivatives and their anti-obesity activities” (Bioorg Med Chem, 2015).

Data set [1] deals with Liver. Put plainly: Increase in oxygen consumption rate of mitochondrial state 4 respiration in ICR mouse liver fraction at 20 uM by Clark-type oxygen electrode assay. It is filed as functional.
Data set [2] deals with Liver. Put plainly: Increase in oxygen consumption rate of mitochondrial state 3 respiration in ICR mouse liver fraction at 20 uM by Clark-type oxygen electrode assay. It is filed as functional.
The test system of data set [3] is Liver. Put plainly: Toxicity in ICR mouse liver fraction assessed as ROS production at 1 to 20 uM by Clark-type oxygen electrode assay. It is filed as tissue-based.
Data set [4] relates to Liver. Put plainly: Increase in oxygen consumption rate of mitochondrial state 4 respiration in ICR mouse liver fraction at 10 uM by Clark-type oxygen electrode assay. It is filed as functional.
Data set [5] relates to Mus musculus. Nature of the data set: Antiobesity activity in ICR mouse assessed as body weight reduction at 0.4 to 0.8 mg/kg/week, ip for 6 weeks measured after 6 weeks relative to control. It is filed as functional. More on the design: scale not given: the % may be the effect or the level left. The following applies: route intraperitoneal.
Data set [6] has as its system Mus musculus. Put plainly: Toxicity in ICR mouse assessed as lesions in liver at 0.4 to 0.8 mg/kg/week, ip for 6 weeks measured after 6 weeks relative to control. It is filed as organism-based. Details: route intraperitoneal. Particulars: in vivo, 1008 h.
The test system of data set [7] is Mus musculus. Nature of the data set: Toxicity in ICR mouse assessed as lesions in kidney at 0.4 to 0.8 mg/kg/week, ip for 6 weeks measured after 6 weeks relative to control. It is filed as organism-based. More on the design: route intraperitoneal. The following applies: in vivo, 1008 h.

Calls of active or inactive are those of the source. The calls are words filed in the database; no cut-off is given here.

As for `COc1cc(C(=O)OCCC(C)C)nc2c(OCC=C(C)C)cccc12`, the outcome in data set [1] was inactive.

On to `COc1cc(C(=O)OCC=C(C)C)nc2c(OC)cccc12`, for which, in data set [1], the outcome was inactive.

Turning to `COc1cc(C(=O)OCC=C(C)C)nc2c(OCC=C(C)C)cccc12`, in data set [1], the outcome was Active. In addition, the outcome in data set [2] was inactive. The Activity entry in data set [3] is on record as “Non-toxic”. On to `COc1cc(C(=O)OCC=C(C)C)nc2c(OC3CCCC3)cccc12`, for which the outcome in data set [1] was inactive. Take `COc1cc(C(=O)OCC=C(C)C)nc2c(OC/C=C(\C)CCC=C(C)C)cccc12`: the result in data set [1] was inactive.

As for `COC(=O)c1cc(OC)c2cccc(OCC=C(C)C)c2n1`, in data set [1], the outcome was inactive.

On to `COc1cc(C(=O)NCC=C(C)C)nc2c(OCC=C(C)C)cccc12`, for which the outcome in data set [1] was inactive.

For `COc1cc(C(=O)OC/C=C(\C)CCC=C(C)C)nc2c(OCC=C(C)C)cccc12`, the outcome in data set [1] was inactive. Same read-out and setting: next, `COc1cc(C(=O)OC2CCCC2)nc2c(OCC=C(C)C)cccc12`: “inactive”; `COc1cc(C(=O)OCC=C(C)C)nc2c(OCCC(C)C)cccc12`: “inactive”. For the compound `CC(C)=CCOC(=O)c1cc(OCC=C(C)C)c2cccc(OCC=C(C)C)c2n1`, the result in data set [1] and in data set [4] was Active. In addition, the result in data set [2] was inactive. In addition, the Activity entry in data set [3] is “Non-toxic”; in data set [5] it was 6%; in data set [6], “Non-toxic”; in data set [7], “Non-toxic”. As for `CCCCCOc1cc(C(=O)OCC=C(C)C)nc2c(OCC=C(C)C)cccc12`, the outcome in data set [1] was Active.
